Patent US6017958A, “Method of treating malignant tumors with thyroxine analogues having no significant hormonal activity” (Octamer, Inc., priority 1997, dated 2000)
Structures can show the parent of a compound that is named as a salt.

Experiments:
[1] = tested on: pADPRT; conditions: parent 6-amino-1,2-benzopyrene; cited from earlier work
[2] = tested on: HIV; conditions: parent 6-amino-1,2-benzopyrene; cited from earlier work
[3] = tested on: tumor; conditions: parent 6-amino-1,2-benzopyrene; cited from earlier work
[4] = tested on: Earl's L cells; conditions: Kirshan, 1968; cited from earlier work
[5] = tested on: iodine uptake into the thyroid; conditions: rat, in vivo; cited from earlier work
[6] = tested on: Rana pipiens tadpoles; conditions: tadpole metamorphosis; cited from earlier work
[7] = tested on: mouse pituitary thyrotropic tumors / non-malignant mouse pituitary adenoma; conditions: cited from earlier work
[8] = tested on: MDA-MB-231 cells; experiment: Flow cytometry / M phase block; format: cell-based, human; conditions: colcemid 0.1 μg/ml, 4 hrs
Method: The MDA-MB-231 cell line was obtained from ATCC (Rockville, Md., USA) and cells were cultured in T-75 flasks at 37° C. in Minimum Essential Medium-alpha, supplemented with 10% FCS. In controls, not receiving DIME, 0.1 μg/ml colcemid was added to cultures for 4 hrs prior to the collection of metaphase-blocked cells and preparation of cell spreads. […] Cells (10^7) were isolated from T-75 trypsinization for 5 min with 0.025% trypsin, and sedimented by centrifugation, resuspended and kept in 10 ml of 75 mM KC1 at 37° C. for 10 min, resedimented, and fixed in 10 ml methanol-acetic acid, with four successive changes of methanol-acetic acid. An aliquot of the final cell suspension (100 μl) was dropped on ethanol-cleaned slides and air-dried.
Cells exposed to different treatments were grown to confluence, trypsinized, and washed with phosphate buffered saline (PBS). For nuclear analysis, cells were fixed in Vindelov Citrate cell buffer: sucrose 250 mM, trisodium citrate. 2H20 40 mM, DMSO 50 ml in 1000 ml solution, pH 7.6. Normal human lymphocytes obtained from blood were used as controls. Each cell sample and control was counted with a hemacytometer and the cell concentration was adjusted to 2×10^6 cells/ml. Two million cells from each cell line in a total volume of 2 ml were washed twice with fresh PBS, treated with 200 μg/ml RNAase at 37° C. for 30 min, and stained with 10 μg/ml propidium iodide for 45 min. Flow cytometric analysis was performed on a FACScan benchtop flow cytometer (Becton-Dickinson, San Jose, Calif., USA) equipped with an air-cooled argon laser tuned to 488 nm. Twenty thousand events were collected as six parameter list mode data for analysis and archival storage. Two light scatter parameters (forward and side), propidium iodide fluorescence measured at 575/26 nm and above 620 nm, and doublet discrimination by fluorescence pulse width and area were acquired at 1024 data channel resolution. Acquisition threshold was set on propidium iodide positive events above channel 100. Gating to exclude small debris, large clumps and cell doublets was done post acquisition.

In the case of Nc1ccc2oc(=O)ccc2c1I [5-iodo-6-amino-1,2-benzopyrone], the “pADPRT inhibitory potency versus parent compound” value [1] is listed as “significantly augmented”, the “antiHIV activity versus parent compound” value [2] is listed as “significantly augmented” and the “antitumor action versus parent compound” value [3] is listed as “significantly augmented”.
For CC[C@]1(O)C[C@@H]2CN(CCc3c([nH]c4ccccc34)[C@@](C(=O)OC)(c3cc4c(cc3OC)N(C)[C@H]3[C@@](O)(C(=O)OC)[C@H](OC(C)=O)[C@]5(CC)C=CCN6CC[C@]43[C@@H]65)C2)C1 [vinblastine sulfate], the “metaphase block / multinucleation” value [4] is listed as “induces metaphase blocked multinucleated cells”.
For N[C@@H](Cc1cc(I)c(Oc2cc(I)c(O)c(I)c2)c(I)c1)C(=O)O [thyroxine], the “suppression of iodine uptake by the thyroid” value [5] is given as “suppresses uptake of iodine by the thyroid”, the “metamorphosis / cell differentiating activity” value [6] is given as “induces cell differentiation” and the “growth of mouse pituitary tumor” value [7] is given as “depress growth of non-malignant mouse pituitary thyrotropic tumors”.
With CN[C@H]1CCc2cc(OC)c(OC)c(OC)c2-c2ccc(OC)c(=O)cc21 [colcemid, reference compound] the “cell cycle block in M phase, comparison of DIME and colcemid” value [8] was “indistinguishable with respect to the cell cycle block in M phase”.
